Data: patent publication US20230322722A1, “MODULATORS OF MYC FAMILY PROTO-ONCOGENE PROTEIN” (Nalo Therapeutics, priority 2020, published 2023)

Tests used:
Type in all cases: cell-based
[1] = target: T1, MycC protein (c-myc) (Homo sapiens, UniProt P01106); assay: Degradation of MycC protein, 24 h treatment, JESS Western, L363 cells (Example 161); details: L-363 cells
T1 construct: either 2×10^6 of L-363 (human leukemia cell line) cells; endogenous in cells; host or cells: L-363 / L363 human leukemia cells
T1 sequence (P01106 whole entry): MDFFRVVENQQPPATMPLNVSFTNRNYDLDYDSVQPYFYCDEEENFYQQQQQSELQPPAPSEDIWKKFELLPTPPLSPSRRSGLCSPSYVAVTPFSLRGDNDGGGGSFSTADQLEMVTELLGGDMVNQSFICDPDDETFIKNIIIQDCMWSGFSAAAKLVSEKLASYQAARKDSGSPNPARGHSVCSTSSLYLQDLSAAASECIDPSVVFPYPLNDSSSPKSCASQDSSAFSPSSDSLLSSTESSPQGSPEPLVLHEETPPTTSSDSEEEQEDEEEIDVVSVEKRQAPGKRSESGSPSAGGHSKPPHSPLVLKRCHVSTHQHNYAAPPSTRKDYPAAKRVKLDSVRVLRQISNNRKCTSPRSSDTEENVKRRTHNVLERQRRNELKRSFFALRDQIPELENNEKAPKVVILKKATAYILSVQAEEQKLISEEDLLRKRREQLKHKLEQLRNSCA
How it was run: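 L363 suspension cells were seeded at 1E6 per well and exposed to compound, prepared as 10 mM DMSO stocks, for 24 hrs. Cells were pelleted, washed with PBS and lysed on ice in RIPA buffer, and lysate protein was measured by BCA. c-myc was detected by JESS capillary Western in the chemiluminescence channel, normalised to tubulin and GAPDH loading controls read in the NIR channel against a DMSO control.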

[2] = target: T2, MycC protein (Homo sapiens, UniProt P01106); assay: Degradation of MycC protein, Western blot, L-363 cells (Example 160); details: for inhibition at 2 µM: 6 h
T2 construct: either 2×10^6 of L-363 (human leukemia cell line) or SKNBE2 (neuroblastoma cell line) cells; endogenous in cells; host or cells: L-363 / L363 human leukemia cells
T2 sequence (P01106 whole entry): as above
How it was run: (§1)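 L-363 or SKNBE2 cells (passage <40, mostly <30) at 1×10^6 cells/mL in RPMI 1640/10% FBS were exposed 6 h to compound added from a 1 mM stock. RIPA lysates (25–30 ug protein) were analysed by SDS-PAGE and immunoblot with 1:500 primary antibody, with protein level quantified by band densitometry.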

[3] = target: T3, MycN protein (Homo sapiens, UniProt P04198); assay: Degradation of MycN protein, Western blot, SKNBE2 cells (Example 160)
T3 construct: either 2×10^6 of L-363 (human leukemia cell line) or SKNBE2 (neuroblastoma cell line) cells; endogenous in cells; host or cells: SKNBE2 / SK-N-BE(2) neuroblastoma cells
T3 sequence (P04198 1-464): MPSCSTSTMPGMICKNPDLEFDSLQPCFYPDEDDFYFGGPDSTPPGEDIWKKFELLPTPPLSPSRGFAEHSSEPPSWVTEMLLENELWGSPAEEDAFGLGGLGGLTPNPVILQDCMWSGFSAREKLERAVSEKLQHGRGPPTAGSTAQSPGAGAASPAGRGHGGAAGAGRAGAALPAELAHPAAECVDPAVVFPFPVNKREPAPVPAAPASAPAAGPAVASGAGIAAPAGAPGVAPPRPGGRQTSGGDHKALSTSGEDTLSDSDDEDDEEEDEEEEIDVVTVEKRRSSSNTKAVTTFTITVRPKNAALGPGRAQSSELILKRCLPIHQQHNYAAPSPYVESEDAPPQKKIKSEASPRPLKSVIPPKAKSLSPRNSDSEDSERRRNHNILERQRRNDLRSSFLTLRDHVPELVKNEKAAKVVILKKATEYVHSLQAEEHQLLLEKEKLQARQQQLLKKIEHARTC
How it was run: as §1

[4] = target: T4, MycN protein (n-myc) (Homo sapiens, UniProt P04198); assay: Degradation of MycN protein, 24 h treatment, JESS Western, SK-N-BE(2) cells (Example 161); details: SKNBE2 cells
T4 construct: either 2×10^6 of L-363 (human leukemia cell line) or SKNBE2 (neuroblastoma cell line) cells; endogenous in cells; host or cells: SKNBE2 / SK-N-BE(2) neuroblastoma cells
T4 sequence (P04198 1-464): T3 sequence (P04198 1-464)

Structure (SMILES) | inhibition at 2 µM [2] [%] | inhibition at 2 µM ([3]; SKNBE2, 6 h) [%] | other results
CN1CC2(CC(N(C)c3nccc(Nc4cc(C5CC5)[nH]n4)n3)C2)C1 [Compound 7, N4-(5-cyclopropyl-1H-pyrazol-3-yl)-N2-methyl-N2-(2-methyl-2-azaspiro[3.3]heptan-6-yl)pyrimidine-2,4-diamine] | 20 to 49 | < 20 | inhibition at 0.5 µM ([1]; 0.5 μM): < 20%; inhibition at 1 µM ([1]; 1 μM): 20 to 49%; inhibition at 3 µM ([1]; 3 μM): 50 to 79%; inhibition at 6 µM ([1]; 6 μM): 80 to 100%; inhibition at 0.5 µM ([4]; 0.5 μM): < 20%; inhibition at 1 µM ([4]; 1 μM): < 20%; inhibition at 3 µM ([4]; 3 μM): 20 to 49%; inhibition at 6 µM ([4]; 6 μM): 80 to 100%
CN(c1nccc(Nc2cc(C3CC3)[nH]n2)n1)C1CCN(CC(=O)Nc2cccc(C(F)(F)F)c2)CC1 [Compound 1, 2-(4-((4-((5-cyclopropyl-1H-pyrazol-3-yl)amino)pyrimidin-2-yl)(methyl)amino)piperidin-1-yl)-N-(3-(trifluoromethyl)phenyl)acetamide] | 80 to 100 |  | inhibition at 2 µM ([3]; 6 h): 50 to 79%
CN(c1nccc(Nc2cc(C3CC3)[nH]n2)n1)C1CCN(CC(=O)Nc2cn(C)nn2)CC1 [Compound 8, 2-(4-((4-((5-cyclopropyl-1H-pyrazol-3-yl)amino)pyrimidin-2-yl)(methyl)amino)piperidin-1-yl)-N-(1-methyl-1H-1,2,3-triazol-4-yl)acetamide] | 80 to 100 | 50 to 79 | 
CN(c1nccc(Nc2cc(C3CC3)[nH]n2)n1)C1CCN(CC(=O)Nc2cccc(S(C)(=O)=O)c2)CC1 [Compound 3, 2-(4-((4-((5-cyclopropyl-1H-pyrazol-3-yl)amino)pyrimidin-2-yl)(methyl)amino)piperidin-1-yl)-N-(3-(methylsulfonyl)phenyl)acetamide] | 80 to 100 | 50 to 79 | 
CN(c1nccc(Nc2cc(C3CC3)[nH]n2)n1)[C@H]1CC[C@H](C(=O)NCc2cccc(C(F)(F)F)c2)CC1 [Compound 127, (1R,4R)-4-((4-((5-cyclopropyl-1H-pyrazol-3-yl)amino)pyrimidin-2-yl)(methyl)amino)-N-(3-(trifluoromethyl)benzyl)cyclohexane-1-carboxamide] | 80 to 100 | 80 to 100 | 
CN(c1nccc(Nc2cc(C3CC3)[nH]n2)n1)[C@H]1CC[C@H](NC(=O)C2CCCC(C(F)(F)F)C2)CC1 (stereo partly drawn) [113 F2] |  |  | % Degradation of MycC (L-363) 6 h, 2 μM [2]: *** (degradation 50-79%); % Degradation of MycN (SKNBE2) 6 h, 2 μM [3]: *** (degradation 50-79%)
CN(c1nccc(Nc2cc(C3CC3)[nH]n2)n1)[C@H]1CC[C@H](C(=O)NC2Cc3ccccc3C2)CC1 [Compound 119, (1R,4R)-4-((4-((5-cyclopropyl-1H-pyrazol-3-yl)amino)pyrimidin-2-yl)(methyl)amino)-N-(2,3-dihydro-1H-inden-2-yl)cyclohexane-1-carboxamide] | 80 to 100 |  | inhibition at 2 µM ([3]; 6 h): 80 to 100%
CN(c1nccc(Nc2cn(C3CCCC3)cn2)n1)[C@H]1CC[C@H](NC(=O)C2Cc3ccccc3C2)CC1 [Compound 130, N-((1R,4R)-4-((4-((1-cyclopentyl-1H-imidazol-4-yl)amino)pyrimidin-2-yl)(methyl)amino)cyclohexyl)-2,3-dihydro-1H-indene-2-carboxamide] | 50 to 79 | < 20 | 
CN(c1nccc(Nc2cc(C3CC3)[nH]n2)n1)C1CCC(CC(=O)NC2Cc3cc(F)c(F)cc3C2)CC1 (stereo not drawn) [Compound 134, 2-(4-((4-((5-cyclopropyl-1H-pyrazol-3-yl)amino)pyrimidin-2-yl)(methyl)amino)cyclohexyl)-N-(5,6-difluoro-2,3-dihydro-1H-inden-2-yl)acetamide] | 80 to 100 |  | inhibition at 2 µM ([3]; 6 h): 20 to 49%
CN(c1cc(C2CCCC2)[nH]n1)c1ccnc(N(C)C2CCC(CC(=O)NC3Cc4ccc(C#N)cc4C3)CC2)n1 (stereo not drawn) [Compound 138, N-(5-cyano-2,3-dihydro-1H-inden-2-yl)-2-(4-((4-((5-cyclopentyl-1H-pyrazol-3-yl)(methyl)amino)pyrimidin-2-yl)(methyl)amino)cyclohexyl)acetamide] | < 20 |  | inhibition at 2 µM ([3]; 6 h): < 20%
CN(c1nccc(Nc2cc(C3CC3)[nH]n2)n1)[C@H]1CC[C@H](NC(=O)c2cccc(C#N)c2)CC1 [Compound 136, 3-cyano-N-((1R,4R)-4-((4-((5-cyclopropyl-1H-pyrazol-3-yl)amino)pyrimidin-2-yl)(methyl)amino)cyclohexyl)benzamide] | 80 to 100 |  | inhibition at 2 µM ([3]; 6 h): 50 to 79%

More lines, main results first:

inhibition at 2 µM [2] [%] | inhibition at 2 µM ([3]; SKNBE2, 6 h) [%] | Structure (SMILES) | other results
80 to 100 | 80 to 100 | Cn1nnc2cc(C(=O)N[C@H]3CC[C@H](N(C)c4nccc(Nc5cc(C6CC6)[nH]n5)n4)CC3)ccc21 [Compound 139, N-((1R,4R)-4-((4-((5-cyclopropyl-1H-pyrazol-3-yl)amino)pyrimidin-2-yl)(methyl)amino)cyclohexyl)-1-methyl-1H-benzo[d][1,2,3]triazole-5-carboxamide] | 
80 to 100 | 80 to 100 | CN(c1nccc(Nc2cc(C3CC3)[nH]n2)n1)[C@H]1CC[C@H](NC(=O)c2cn3cccnc3n2)CC1 [Compound 141, N-((1R,4R)-4-((4-((5-cyclopropyl-1H-pyrazol-3-yl)amino)pyrimidin-2-yl)(methyl)amino)cyclohexyl)imidazo[1,2-a]pyrimidine-2-carboxamide] | 
80 to 100 | 50 to 79 | CN(c1nccc(Nc2cc(C3CC3)[nH]n2)n1)[C@H]1CC[C@H](NC(=O)C2CCc3ccccc32)CC1 (stereo partly drawn) [Compound 112, N-((1R,4R)-4-((4-((5-cyclopropyl-1H-pyrazol-3-yl)amino)pyrimidin-2-yl)(methyl)amino)cyclohexyl)-2,3-dihydro-1H-indene-1-carboxamide] | 
80 to 100 | 50 to 79 | Cn1ncc2cc(C(=O)N[C@H]3CC[C@H](N(C)c4nccc(Nc5cc(C6CC6)[nH]n5)n4)CC3)ccc21 [Compound 118, N-((1R,4R)-4-((4-((5-cyclopropyl-1H-pyrazol-3-yl)amino)pyrimidin-2-yl)(methyl)amino)cyclohexyl)-1-methyl-1H-indazole-5-carboxamide] | 
80 to 100 | 80 to 100 | CN(c1nccc(Nc2cc(C3CC3)[nH]n2)n1)[C@H]1CC[C@H](NC(=O)c2cn3ccccc3n2)CC1 [Compound 117, N-((1R,4R)-4-((4-((5-cyclopropyl-1H-pyrazol-3-yl)amino)pyrimidin-2-yl)(methyl)amino)cyclohexyl)imidazo[1,2-a]pyridine-2-carboxamide] | 
80 to 100 | 50 to 79 | CN(c1nccc(Nc2cc(C3CC3)[nH]n2)n1)[C@H]1CC[C@H](NC(=O)N2CCc3cc(F)c(F)cc3C2)CC1 [Compound 13, N-((1R,4R)-4-((4-((5-cyclopropyl-1H-pyrazol-3-yl)amino)pyrimidin-2-yl)(methyl)amino)cyclohexyl)-6,7-difluoro-3,4-dihydroisoquinoline-2(1H)-carboxamide] | 
